Calls of active or inactive are those of the source. No rule for the calls is given here.

The nature of this test: H9c2 cardiomyoblast viability modulators under 2-DG – cell-based, ATPlite luminescence, rat, set 2, myocardial damage modulator project, dose response (AID 602210). The note with it: H9c2 rat cardiomyoblasts, 2-deoxyglucose-induced death, 2 h. (In general: Cellular ATP, detected with luciferase, serves as a proxy for viable cell number.)
By IC50 is commonly meant the concentration at which inhibition is half-maximal. Take `CC(C)(C)NC(=O)COC(=O)c1c2c(nc3ccccc13)CCC2`: the IC50 was 16.7 µM (inactive).

With `O=C(CN1C(=O)C2CC=CCC2C1=O)Nc1nc(-c2ccc(F)cc2)cs1` (stereo not given), the IC50 was > 79 µM (inactive).

On to `COC(=O)c1[nH]c2cc(OC)c(OC)cc2c1/C=N/Nc1ccccc1`, for which the IC50 was > 79 µM (inactive).

`NC(=O)c1nsc(C(=O)N(Cc2ccco2)C(C(=O)NCc2ccccc2)c2ccc(O)cc2)c1N` (stereo not given): the IC50 was 14.9 µM (inactive).

Take `O=C(Nc1cc(S(=O)(=O)N2CCOCC2)ccc1N1CCCCC1)c1cc(-c2ccccn2)nc2ccccc12`: the IC50 is 14.6 µM (inactive).

Take `Cc1ccc(-n2cc(-c3ccccc3)c3c(N4CCOCC4)ncnc32)cc1`: the IC50 is 8.37 µM.

For `CCOC(=O)C(Cc1ccc(NC(=O)/C(=C/c2ccc(OC(C)=O)cc2)NC(C)=O)cc1)N1C(=O)c2ccccc2C1=O` (stereo not given), the IC50 was 15.6 µM (inactive).

As to `NC(=O)c1ccc(Nc2nnc(-c3ccc(O)cc3)c3ccccc23)cc1`, the IC50 was 34.2 µM (inactive).

As to `CC(=O)N1CCN(c2ccccc2NC(=O)c2ccc(-c3cccc([N+](=O)[O-])c3)o2)CC1`, the IC50 was 6.88 µM.

For the molecule `COc1ccc2c(c1OC)C(=O)N1c3ccccc3C(=O)N(c3ccccc3)C21` (stereo not given), the IC50 is 8.7 µM.

Turning to `O=CNc1cc(-c2ccc(C(=O)NC3CC3)cc2)cn2c(-c3ccc(F)c(Cl)c3)cnc12`, the IC50 is 17.2 µM (inactive).

Consider `COc1cccc(Nc2nc3ccccc3n3cnnc23)c1`, for which the IC50 is 17.5 µM (inactive).

In the case of `O=c1c2ccccc2nc2c3ccccc3c(NCCO)nn12`, the IC50 is 70.6 µM (inactive).

Consider `NC(=O)c1cc2ccccc2o/c1=N\NC(=O)c1ccc(F)cc1`, for which the IC50 is 7.99 µM.

`O=C(Nc1ccccc1)c1nc[nH]c1C(=O)NCCNC(=O)c1[nH]cnc1C(=O)Nc1ccccc1`: the IC50 is 1.17 µM.

On to `COc1ccc(CCn2c(=N)c(C(=O)NCC3CCCO3)cc3c(=O)n4cccc(C)c4nc32)cc1OC` (stereo not given), for which the IC50 was > 79 µM (inactive).

Take `CC(=O)Nc1ccc(S(=O)(=O)N(Cc2ccco2)Cc2cc3ccccc3[nH]c2=O)cc1`: the IC50 is 8.86 µM.

In the case of `COc1ccc2c(c1OC)c(=O)n1c3ccc(OC(C)C(=O)NCCN4CCOCC4)cc3c3ccnc2c31` (stereo not given), the IC50 was 46.6 µM (inactive).

With `CCOc1ccc2[nH]c(=O)c(CN(Cc3nnnn3Cc3ccco3)C3CCCCC3)cc2c1`, the IC50 is 9.18 µM.

As to `N#Cc1c(-c2ccco2)cc(-c2cccnc2)nc1N`, the IC50 is 26.1 µM (inactive).

As for `C[C@H](NC(=O)c1nc[nH]c1C(=O)NCC(=O)OCc1ccccc1)C(=O)OCc1ccccc1`, the IC50 was 2.8 µM.

Consider `Cc1cccc(NC(=O)c2nc[nH]c2C(=O)NCCCCNC(=O)c2[nH]cnc2C(=O)Nc2cccc(C)c2)c1`, for which the IC50 was 3.32 µM.

For `O=C(COC(=O)c1ccccc1C(=O)OCC(=O)NCCc1c[nH]c2ccccc12)NCCc1c[nH]c2ccccc12`, the IC50 was 9.24 µM.

Regarding `COc1cccc(C(=O)CSc2nnc(-c3cc(OC)c(OC)c(OC)c3)o2)c1`, the IC50 is > 79 µM (inactive).

Turning to `Cc1ccc(NC(=O)c2nc[nH]c2C(=O)NCCCNC(=O)c2[nH]cnc2C(=O)Nc2ccc(C)cc2)cc1`, the IC50 was 1.33 µM.

Regarding `CCc1nc2ccc(C(=O)Nc3cc(-c4ccccc4)ccc3OC)cn2c1N(C)Cc1nccs1`, the IC50 was 14.1 µM (inactive).

As for `CC(=O)c1cccc(-c2cnc3c(NC=O)cc(-c4ccccc4F)cn23)c1`, the IC50 was 17.9 µM (inactive).

In the case of `CCOC(=O)C1=C(C)NC(C)=C(C(=O)OCC)C1C(=O)OCC(=O)NC(C)C`, the IC50 is 25.1 µM (inactive).

In the case of `COCCCNC(=O)/C(C#N)=C1\N=C(NC(=O)c2cccs2)c2ccccc21`, the IC50 is > 79 µM (inactive).

`COc1ccc2[nH]c(=O)c(CN(Cc3cccnc3)S(=O)(=O)c3ccccc3F)cc2c1`: the IC50 was 2.74 µM.

`C[C@@H]1CN([C@@H](C)CO)C(=O)c2cc(NC(=O)Nc3ccccc3)ccc2O[C@H]1CN(C)C(=O)Nc1cccc2ccccc12`: the IC50 is 15 µM (inactive).

With `COc1ccc(-c2nn(-c3ccccc3)cc2C(=O)Nc2nccs2)cc1`, the IC50 was 16.4 µM (inactive).

Take `COc1ccccc1NC(=O)c1cc(-c2cc(OC)c(OC)c(OC)c2)nc2ccccc12`: the IC50 was 8.68 µM.

Consider `O=C(Nc1ccc2nc(N3CCOCC3)sc2c1)c1cc2ccccc2o1`, for which the IC50 is > 79 µM (inactive).

Consider `Cc1ccc2nsnc2c1S(=O)(=O)N(Cc1ccco1)Cc1cc2cccc(C)c2[nH]c1=O`, for which the IC50 is > 79 µM (inactive).

For the molecule `NC(=O)COc1ccc2oc(=O)cc(-c3cc4ccccc4o3)c2c1`, the IC50 was 17.2 µM (inactive).

As to `COc1cccc(-c2nn3c(-c4ccccn4)nnc3s2)c1`, the IC50 was 16.1 µM (inactive).

For `N#C/C(=C\c1cn(-c2ccccc2)nc1-c1cccnc1)c1nnc2n1CCCCC2`, the IC50 is 30.2 µM (inactive).

Regarding `CCOC(=O)c1ccc(-c2ccc(/C=C(\C#N)C(=O)NCC3CCCO3)o2)cc1` (stereo not given), the IC50 is > 79 µM (inactive).

On to `COc1cc2nc(C3CCC3)nc(N3CCN(c4ccccn4)CC3)c2cc1OC`, for which the IC50 is > 79 µM (inactive).

With `COc1cc(/C=N/NC(=O)c2cccnc2)ccc1OS(=O)(=O)c1ccc(F)cc1`, the IC50 was 21.2 µM (inactive).

Turning to `COC(=O)c1ccc(N)c(N=CC2=C(O)CC(C)(C)CC2=O)c1`, the IC50 was 11.9 µM (inactive).

For `CCOC(=O)c1nc(Nc2ccc(C(=O)OC)cc2)c2ccccc2n1`, the IC50 was > 79 µM (inactive).

In the case of `COc1ccc(C(=O)Nc2cccc(NC(=O)c3ccc(OC)c(OC)c3)n2)cc1OC`, the IC50 is 5.47 µM.

Consider `CC(=O)Nc1ccc(-c2csc(NC(=O)Nc3ccccc3)n2)cc1`, for which the IC50 is 1.94 µM.

As to `OC1CCN(c2c3c(nc4cc(-c5cccc(F)c5)nn24)CCCC3)CC1`, the IC50 was 23.8 µM (inactive).

For `COc1cc(/C=C(\C#N)C(=O)Nc2ccccc2)ccc1OCCN1CCOCC1`, the IC50 was > 79 µM (inactive).

With `CCOC(=O)C1CCN(C(c2cc3c(C)ccc(C)c3[nH]c2=O)c2nnnn2C2CCCCC2)CC1` (stereo not given), the IC50 was 19.2 µM (inactive).

Turning to `NS(=O)(=O)c1ccc(N=Cc2c(O)n(-c3nccs3)c(=O)c3ccccc23)cc1`, the IC50 was 37.2 µM (inactive).

Take `CCOC(=O)C1CCN(c2cc3c(cc2NC(=O)c2ccc(F)cc2)n(C)c(=O)n3C)CC1`: the IC50 is 28.5 µM (inactive).

Take `CC/C(C)=N\N=C\c1c(O)n(CC)c2cc(C3=NNC(=O)CC3)ccc12`: the IC50 was > 79 µM (inactive).

For `Cc1ncc(CO)c2c1Oc1nc(-c3ccccc3)nc(SCC(=O)N3CCCCC3)c1C2`, the IC50 is > 79 µM (inactive).

In the case of `CCn1c(=O)cc(OCC(=O)Nc2ccccc2C#N)c2ccccc21`, the IC50 was 43.9 µM (inactive).

With `O=C(Nc1cccnc1)c1sc(Nc2ccccc2)nc1-c1ccccc1`, the IC50 was > 79 µM (inactive).

As for `CN(C)C(=O)/C=C\c1cn(-c2ccccc2)nc1-c1ccc2c(c1)OCCO2`, the IC50 is 29.4 µM (inactive).

`CC(=O)NCCNc1nc2c(-c3ccccc3)nnn2c2ccccc12`: the IC50 was 13.2 µM (inactive).

On to `CC(=O)Nc1cc(-c2cccc(C(=O)N(C)C)c2)cn2c(-c3ccc(C(C)=O)cc3)cnc12`, for which the IC50 was 27.1 µM (inactive).

Regarding `O=C(c1ccccc1)c1ccc2nc(N3CCN(C(=O)c4ccco4)CC3)c3nncn3c2c1`, the IC50 was 21.9 µM (inactive).

As to `CCOc1ccc(-n2cc(-c3ccccc3)c3c(N4CCOCC4)ncnc32)cc1`, the IC50 was 10.3 µM (inactive).

On to `COc1ccc(C=NNc2nc3c([nH]2)c(=O)n(C)c(=O)n3C)cc1`, for which the IC50 is 16.6 µM (inactive).

Turning to `CC(C)(C)C(=O)Nc1ccc(C(=O)N/N=C/c2ccccc2OC(=O)c2ccccc2)cc1`, the IC50 is > 79 µM (inactive).

With `Cc1ccc(NC(=O)c2cc(=O)c3ccccc3o2)cc1S(=O)(=O)N1CCOCC1`, the IC50 was 29.6 µM (inactive).

As to `O=C(O)c1ccc2c(c1)S(=O)(=O)c1cc(N3CCN(c4cnccn4)CC3)ccc1C2=O`, the IC50 was 18.6 µM (inactive).

Turning to `COc1ccc(NC(=O)c2oc3ccc(S(=O)(=O)N4CCOCC4)cc3c2C)cc1`, the IC50 was 15.3 µM (inactive).

On to `COc1ccccc1NC(=O)c1cc(-c2ccc(OC)c(OC)c2)nc2ccccc12`, for which the IC50 was 7.39 µM.

Turning to `CCOC(=O)c1c2c3c(cccc3n(C)c1=O)C(=O)c1ccccc1-2`, the IC50 is 15.8 µM (inactive).

Take `NC(=O)c1nsc(C(=O)N(CCc2ccccc2)C(C(=O)NC2CCCC2)c2ccco2)c1N` (stereo not given): the IC50 was 25.8 µM (inactive).

`COc1nc(N/N=C/c2cc3c(cc2Br)OCO3)nc(N2CCOCC2)n1`: the IC50 is 17.4 µM (inactive).

For `CSc1nc2ccc(S(=O)(=O)Nc3c(C)n(C)n(-c4ccccc4)c3=O)cc2s1`, the IC50 was 8.98 µM.

In the case of `COc1ccc(CSc2nc3ccccc3c(=O)[nH]2)cc1F`, the IC50 is > 79 µM (inactive).

`CS(=O)(=O)Nc1cccc(NC(=O)c2cccc3c(-c4cccc(C(N)=O)c4)coc23)c1`: the IC50 was 5.97 µM.

On to `CC(=O)c1ccc(-c2[nH]c3ccccc3c2CCN2C(=O)c3ccccc3C2=O)cc1`, for which the IC50 is > 79 µM (inactive).

As to `CCOCCn1ccc2c(OCC(=O)Nc3cc(OC)ccc3OC)cccc2c1=O`, the IC50 was > 79 µM (inactive).

With `CCCC(=O)Nc1nc2ccc(NC(=O)c3ccc(Br)o3)cc2s1`, the IC50 was > 79 µM (inactive).

On to `CC(=O)c1cccc(-c2cnc3c(NC=O)cc(-c4ccc(F)cc4)cn23)c1`, for which the IC50 is > 79 µM (inactive).

For `Cc1cc(C)c(S(=O)(=O)N2CCN(C(=O)c3cc(=O)[nH]c4ccccc34)CC2)c(C)c1`, the IC50 was 20 µM (inactive).

Turning to `Cc1nc(NC(=O)c2cc3c(C)nn(-c4ccccc4)c3s2)sc1C(=O)Nc1ccccc1`, the IC50 is > 79 µM (inactive).

For `COc1ccc(-c2cc(C(F)(F)F)n3nc(C(=O)N4CCN(C(=O)c5ccco5)CC4)cc3n2)cc1`, the IC50 was 3.79 µM.

As to `CC(C)(C)OC(=O)C[C@H]1C/C=C\C[C@H](CC(=O)N[C@H](CO)Cc2ccccc2)C(=O)N[C@H](Cc2ccccc2)COC1=O`, the IC50 was 59.9 µM (inactive).

In the case of `COc1ccc(C(=O)Nc2cc(C)nn2-c2nc3ccccc3[nH]2)c(OC)c1`, the IC50 was 16.1 µM (inactive).

These data come from PubChem BioAssay AID602210 (Sanford-Burnham Center for Chemical Genomics, 2012).
